# Laboratory results taken from PMC8740755 (Proceedings of the National Academy of Sciences of the …, 2021).
# Molecular target: WipA (Legionella pneumophila, UniProt Q5ZS02)
# Sequence (Q5ZS02 1-520): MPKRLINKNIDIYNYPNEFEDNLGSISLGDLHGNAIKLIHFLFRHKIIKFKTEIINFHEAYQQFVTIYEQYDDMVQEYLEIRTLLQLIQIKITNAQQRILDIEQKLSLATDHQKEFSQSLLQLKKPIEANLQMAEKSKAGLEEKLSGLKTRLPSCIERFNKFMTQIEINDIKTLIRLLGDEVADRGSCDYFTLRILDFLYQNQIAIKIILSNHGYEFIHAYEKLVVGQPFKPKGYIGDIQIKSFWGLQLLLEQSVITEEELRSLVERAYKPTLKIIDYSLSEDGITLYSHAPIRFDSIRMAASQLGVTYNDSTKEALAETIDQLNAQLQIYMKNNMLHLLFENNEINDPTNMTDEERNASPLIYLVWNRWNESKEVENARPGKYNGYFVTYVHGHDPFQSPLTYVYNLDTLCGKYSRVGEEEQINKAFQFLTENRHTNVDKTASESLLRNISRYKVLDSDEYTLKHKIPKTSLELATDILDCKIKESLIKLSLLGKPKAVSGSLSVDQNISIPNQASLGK
compound,measurement,value
O=[N+]([O-])c1ccc(OP(=O)(O)O)cc1 [pNPP],free phosphate by malachite green assay,"exhibited robust activity, and a mutation in its active site abolished such activity"
